The source of these data is patent US7396943B2, “Opioid receptor antagonists” (Eli Lilly and Company, priority 2004, dated 2008).

Each structure is given as a SMILES string. Where a name gives a salt, the structure may show the parent alone.

Type in all cases: biochemical
For one experiment, the target named is mu opioid receptor (MOR) (Homo sapiens, UniProt P35372). Kind of experiment: GTP-γ-S binding assay (SPA), antagonist mode, mu. Particulars: antagonism of agonist DAMGO 1 micromolar; membranes; Kb by Cheng-Prusoff equation; read-out: In Vitro Antagonism GTP-γ-S Kb (nM) Mu. Here is the method:
(§1) A scintillation proximity assay (SPA)-based GTP-γ-S^35 assay format was developed based on previous opioid (Emmerson et al., J. Pharm Exp Ther 278, 1121, 1996; Horng et al., Society for Neuroscience Abstracts, 434.6, 2000) and muscarinic (DeLapp et al., JPET 289, 946, 1999) assay formats. Membranes were resuspended in 20 mM HEPES, 100 mM NaCl, 5 mM MgCl2, 1 mM DTT, and 1 mM EDTA. […] of GTP-γ-[35S], compound, membrane suspension (20 microgram/well), and wheat germ agglutinin coated SPA beads (1 mg/well) were added to clear bottom 96 well assay plates. GDP ([…]) was added to the membrane solution prior to addition to the assay plates. Plates were sealed and incubated for four hours at room temperature then placed in a refrigerator overnight to allow the beads to settle. Signal stability at 4° C. was determined to be >60 hours. Plates were warmed to room temperature and counted in a Wallac Microbeta scintillation counter. For antagonist assays, specific agonists were added at the following concentrations: (MOR) DAMGO 1 micromolar, (DOR) DPDPE 30 nM, (KOR) US69593 300 nM. Kb's were determined by Cheng-Prusoff equation (see Cheng and Prusoff, Biochem. Pharmacol. 22, 3099 1973).
In general terms: GTPγS is a poorly hydrolysed GTP analogue; its binding reports G protein activation.

Experiment [1] concerns the target kappa opioid receptor (KOR) (Homo sapiens, UniProt P41145). Description: GTP-γ-S binding assay (SPA), antagonist mode, kappa. The settings on record: antagonism of agonist US69593 300 nM; membranes; Kb by Cheng-Prusoff equation; read-out: In Vitro Antagonism GTP-γ-S Kb (nM) Kappa. Here is the method:
as §1

Experiment [2] concerns the target delta opioid receptor (DOR) (Homo sapiens, UniProt P41143). Description: GTP-γ-S binding assay (SPA), antagonist mode, delta. The settings on record: antagonism of agonist DPDPE 30 nM; membranes; Kb by Cheng-Prusoff equation; read-out: In Vitro Antagonism GTP-γ-S Kb (nM) Delta. Here is the method:
as §1

kappa opioid receptor (KOR), sequence (P41145 whole entry): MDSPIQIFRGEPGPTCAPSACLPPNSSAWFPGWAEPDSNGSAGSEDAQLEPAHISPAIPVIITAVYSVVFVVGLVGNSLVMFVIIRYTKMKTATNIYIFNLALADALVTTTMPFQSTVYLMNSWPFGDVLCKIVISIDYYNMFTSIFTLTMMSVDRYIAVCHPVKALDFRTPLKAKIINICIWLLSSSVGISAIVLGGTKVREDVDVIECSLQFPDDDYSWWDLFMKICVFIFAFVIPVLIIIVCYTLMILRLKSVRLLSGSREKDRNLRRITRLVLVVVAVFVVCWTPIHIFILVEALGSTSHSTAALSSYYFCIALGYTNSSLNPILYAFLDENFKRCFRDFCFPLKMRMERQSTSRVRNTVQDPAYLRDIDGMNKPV
mu opioid receptor (MOR), sequence (P35372 whole entry): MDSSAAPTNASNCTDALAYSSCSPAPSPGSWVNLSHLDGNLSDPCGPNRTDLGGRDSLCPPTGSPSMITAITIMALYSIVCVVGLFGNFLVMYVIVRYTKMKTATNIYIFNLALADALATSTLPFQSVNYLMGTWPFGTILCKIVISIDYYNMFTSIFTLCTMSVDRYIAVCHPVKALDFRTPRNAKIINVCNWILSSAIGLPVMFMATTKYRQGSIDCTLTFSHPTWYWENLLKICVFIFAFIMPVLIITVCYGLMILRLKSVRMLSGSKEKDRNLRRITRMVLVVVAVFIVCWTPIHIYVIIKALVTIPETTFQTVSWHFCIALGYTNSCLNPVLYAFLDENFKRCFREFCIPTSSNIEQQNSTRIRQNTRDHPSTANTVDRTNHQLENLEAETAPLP
delta opioid receptor (DOR), sequence (P41143 whole entry): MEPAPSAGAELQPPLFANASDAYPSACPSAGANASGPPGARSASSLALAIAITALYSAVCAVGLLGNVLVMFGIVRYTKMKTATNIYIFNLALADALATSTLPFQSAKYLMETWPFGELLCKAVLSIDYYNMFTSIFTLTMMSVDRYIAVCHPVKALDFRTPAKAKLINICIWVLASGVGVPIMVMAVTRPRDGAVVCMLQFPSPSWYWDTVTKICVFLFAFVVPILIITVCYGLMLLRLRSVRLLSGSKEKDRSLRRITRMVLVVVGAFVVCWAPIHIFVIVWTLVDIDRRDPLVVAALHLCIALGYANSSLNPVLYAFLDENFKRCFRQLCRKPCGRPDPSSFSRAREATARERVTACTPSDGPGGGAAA

As to `NC(=O)c1ccc(Oc2ccc(CNCCc3ccccc3)s2)cc1` [Example 1, 4-[5-(Phenethylamino-methyl)-thiophen-2-yloxy]-benzamide], the Kb amounted to 0.6 nM on mu opioid receptor (MOR), 4.6 nM in experiment [1] and 3.3 nM in experiment [2].

For the molecule `CC(C)CCNCc1ccc(Oc2ccc(C(N)=O)cc2)s1` [Example 2, 4-{5-[(3-Methyl-butylamino)-methyl]-thiophen-2-yloxy}-benzamide], the figures for the Kb (at mu opioid receptor (MOR); in experiment [1]; in experiment [2]) were 3.7 nM, 2.2 nM and 19.4 nM, respectively.

Regarding `NC(=O)c1ccc(Oc2ccc(CNCCc3cccc(F)c3)s2)cc1` [Example 3, 4-(5-{[2-(3-Fluoro-phenyl)-ethylamino]-methyl}-thiophen-2-yloxy)-benzamide], the Kb was determined as 0.6 nM at mu opioid receptor (MOR), 3.9 nM in experiment [1] and 1.6 nM in experiment [2].

Regarding `NC(=O)c1ccc(Oc2ccc(CNCCC3CCCC3)s2)cc1` [Example 4, 4-{5-[(2-Cyclopentyl-ethylamino)-methyl]-thiophen-2-yloxy}-benzamide], the Kb was found to be 0.6 nM on mu opioid receptor (MOR), 1 nM in experiment [1] and 2.7 nM in experiment [2].

`NC(=O)c1ccc(Oc2ccc(CNCCc3cccs3)s2)cc1` [Example 5, 4-{5-[(2-Thiophen-2-yl-ethylamino)-methyl]-thiophen-2-yloxy}-benzamide]: the results for the Kb (on mu opioid receptor (MOR); in experiment [1]; in experiment [2]) were 0.6 nM, 1.4 nM and 2.4 nM, respectively.

Consider `CC(C)(C)CCNCc1ccc(Oc2ccc(C(N)=O)cc2)s1` [Example 6, 4-{5-[(3,3-Dimethyl-butylamino)-methyl]-thiophen-2-yloxy}-benzamide], for which the Kb at mu opioid receptor (MOR) amounted to 5.7 nM; in experiment [2], 13.7 nM.

Regarding `COc1cc(C(N)=O)ccc1Oc1ccc(CNCCc2ccccc2)s1` [Example 7, 3-Methoxy-4-[5-(phenethylamino-methyl)-thiophen-2-yloxy]-benzamide hydrochloride], the Kb was 0.3 nM at mu opioid receptor (MOR), 4 nM in experiment [1] and 1.3 nM in experiment [2].

Turning to `COc1cc(C(N)=O)ccc1Oc1ccc(CNCCC(C)C)s1` [Example 8, 3-Methoxy-4-{5-[(3-methyl-butylamino)-methyl]-thiophen-2-yloxy}-benzamide hydrochloride], the Kb on mu opioid receptor (MOR) stood at 4.7 nM; in experiment [1], 3.2 nM; in experiment [2] it was 40.5 nM.
